The term IC50 denotes the point on the concentration scale where inhibition reaches its midpoint. As a reminder, the Ki is a dissociation constant, usually derived from enzyme kinetics or from competition with a known ligand.

Each structure is given as a SMILES string.

Data set [1] addresses T1, Alpha-1D adrenergic receptor (Homo sapiens, UniProt P25100).
T1 sequence (P25100 whole entry): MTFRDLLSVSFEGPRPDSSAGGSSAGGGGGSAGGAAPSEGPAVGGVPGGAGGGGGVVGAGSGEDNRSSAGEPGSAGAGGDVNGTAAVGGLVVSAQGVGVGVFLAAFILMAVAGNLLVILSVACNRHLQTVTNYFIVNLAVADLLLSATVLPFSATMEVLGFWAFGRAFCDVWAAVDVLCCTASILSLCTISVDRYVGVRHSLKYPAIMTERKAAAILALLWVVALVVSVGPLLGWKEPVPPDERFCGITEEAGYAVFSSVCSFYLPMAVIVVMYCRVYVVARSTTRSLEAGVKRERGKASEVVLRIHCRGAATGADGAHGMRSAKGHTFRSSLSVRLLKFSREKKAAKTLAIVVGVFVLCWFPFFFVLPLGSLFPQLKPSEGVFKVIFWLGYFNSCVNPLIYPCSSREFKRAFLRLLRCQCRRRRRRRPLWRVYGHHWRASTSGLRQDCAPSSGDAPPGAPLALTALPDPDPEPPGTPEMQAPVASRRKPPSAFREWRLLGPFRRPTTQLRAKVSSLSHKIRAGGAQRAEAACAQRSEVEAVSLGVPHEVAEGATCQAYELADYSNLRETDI
Format: cell membranes, HEK293, Membrane. The note with it: hek293.

Data set [2] is described as follows: DRUGMATRIX: Sigma2 radioligand binding (ligand: [3H] Ifenprodil). In kind it is cell membranes, Rattus norvegicus, Wistar, Brain, Membrane. To be noted: Not Active = under 50% inhibition at 10 µM.
Data set [3] addresses T2, Substance-K receptor (Homo sapiens, UniProt P21452).
T2 sequence (P21452 whole entry): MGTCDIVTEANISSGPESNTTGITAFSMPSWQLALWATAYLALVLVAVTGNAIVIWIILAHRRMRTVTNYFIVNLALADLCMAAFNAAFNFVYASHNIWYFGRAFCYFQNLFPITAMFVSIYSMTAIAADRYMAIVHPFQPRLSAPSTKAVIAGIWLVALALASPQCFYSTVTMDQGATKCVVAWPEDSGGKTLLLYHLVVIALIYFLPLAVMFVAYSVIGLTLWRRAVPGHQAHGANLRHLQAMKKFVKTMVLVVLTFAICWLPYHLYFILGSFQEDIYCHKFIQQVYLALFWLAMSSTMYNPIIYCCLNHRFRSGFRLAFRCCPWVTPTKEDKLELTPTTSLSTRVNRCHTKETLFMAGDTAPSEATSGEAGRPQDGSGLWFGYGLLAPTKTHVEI
In kind it is cell membranes, CHO, Membrane.

Data set [4] addresses Cannabinoid receptor 1 (Homo sapiens, UniProt P21554). In kind it is cell membranes, Membrane. The note with it: chem-1.
Data set [5] has as its target Carbonic anhydrase 2 (Homo sapiens, UniProt P00918). The experiment in a line: DRUGMATRIX: Carbonic Anhydrase II enzyme inhibition (substrate: 4-Nitrophenyl acetate (4-NPA)). In kind it is tissue-based, Erythrocyte. To be noted: erythrocyte; Not Active = under 50% inhibition at 10 µM.
Data set [6] is described as follows: DRUGMATRIX: GABAA, Muscimol, Central radioligand binding (ligand: [3H] Muscimol). Format: cell membranes, Rattus norvegicus, Wistar, Brain, Membrane. The note with it: Not Active = under 50% inhibition at 10 µM.
For data set [7], the target named is T3, Leukotriene C4 synthase (Cavia porcellus, UniProt A6XA80).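 Note: enzyme inhibition assay of leukotriene C4 synthase, using LTA4 as the substrate; in other assays of this panel Not Active means under 50% inhibition at 10 µM.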
T3 sequence (A6XA80 whole entry): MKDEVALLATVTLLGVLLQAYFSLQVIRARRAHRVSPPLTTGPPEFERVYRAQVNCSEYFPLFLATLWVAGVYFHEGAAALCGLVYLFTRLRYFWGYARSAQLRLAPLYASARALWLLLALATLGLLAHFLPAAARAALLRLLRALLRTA
The experiment in a line: biochemical. Format: tissue-based, Lung.

In data set [8] the target is Mitogen-activated protein kinase 14 (Homo sapiens, UniProt Q16539). On the set-up: species or system Escherichia coli.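 Note: inhibition of p38alpha enzyme activity in a biochemical kinase assay, with myelin basic protein serving as substrate; in other assays of this panel Not Active means under 50% inhibition at 10 µM.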
Data set [9] deals with Tyrosine-protein kinase Fyn (Homo sapiens, UniProt P06241). The experiment in a line: biochemical. To be noted: insect cells. Format: cell-based, Insect cells.
Data set [10] concerns the target Acetylcholinesterase (Homo sapiens, UniProt P22303). Kind of data set: DRUGMATRIX: Acetylcholinesterase enzyme inhibition (substrate: acetylthiocholine). Format: cell-based, HEK293. To be noted: hek293; Not Active = under 50% inhibition at 10 µM.
For data set [11], the target named is T4, Adenosine receptor A3 (Homo sapiens, UniProt P0DMS8).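 Note: radioligand binding assay with AB-MECA serving as the labeled ligand; in other assays of this panel Not Active means under 50% inhibition at 10 µM.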
T4 sequence (P0DMS8 whole entry): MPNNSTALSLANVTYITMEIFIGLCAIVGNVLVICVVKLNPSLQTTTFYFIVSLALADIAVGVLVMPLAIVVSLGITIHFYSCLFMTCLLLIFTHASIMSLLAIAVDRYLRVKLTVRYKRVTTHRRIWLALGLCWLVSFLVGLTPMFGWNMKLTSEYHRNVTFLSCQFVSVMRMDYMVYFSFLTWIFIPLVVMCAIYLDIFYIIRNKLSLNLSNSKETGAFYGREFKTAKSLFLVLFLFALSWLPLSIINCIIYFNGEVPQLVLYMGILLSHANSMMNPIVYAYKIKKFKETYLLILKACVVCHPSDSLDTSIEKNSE
In kind it is cell membranes, CHO-K1, Membrane. To be noted: cho-k1.

Data set [12] concerns the target T5, Cytochrome P450 2A6 (Homo sapiens, UniProt P11509). Note: in other assays of this panel Not Active means under 50% inhibition at 10 µM.
T5 sequence (P11509 whole entry): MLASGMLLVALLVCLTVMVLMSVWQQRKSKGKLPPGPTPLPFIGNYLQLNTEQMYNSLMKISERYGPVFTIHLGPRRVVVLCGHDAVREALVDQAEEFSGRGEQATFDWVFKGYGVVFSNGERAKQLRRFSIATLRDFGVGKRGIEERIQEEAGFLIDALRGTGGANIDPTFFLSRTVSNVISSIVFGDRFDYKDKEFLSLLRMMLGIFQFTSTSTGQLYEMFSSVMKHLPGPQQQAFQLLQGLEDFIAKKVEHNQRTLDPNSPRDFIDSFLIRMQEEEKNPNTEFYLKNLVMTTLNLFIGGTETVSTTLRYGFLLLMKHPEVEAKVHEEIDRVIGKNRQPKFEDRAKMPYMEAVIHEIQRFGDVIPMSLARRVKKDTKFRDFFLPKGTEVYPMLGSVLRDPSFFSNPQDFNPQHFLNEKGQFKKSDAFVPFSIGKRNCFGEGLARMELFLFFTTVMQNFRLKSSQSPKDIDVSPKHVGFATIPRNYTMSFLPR
To be noted: bti-tn-5b1-4.

In data set [13] the target is Cytochrome P450 2C9 (Homo sapiens, UniProt P11712). To be noted: bti-tn-5b1-4. Note: in other assays of this panel Not Active means under 50% inhibition at 10 µM.
Chain of Cytochrome P450 2C9 (P11712 whole entry): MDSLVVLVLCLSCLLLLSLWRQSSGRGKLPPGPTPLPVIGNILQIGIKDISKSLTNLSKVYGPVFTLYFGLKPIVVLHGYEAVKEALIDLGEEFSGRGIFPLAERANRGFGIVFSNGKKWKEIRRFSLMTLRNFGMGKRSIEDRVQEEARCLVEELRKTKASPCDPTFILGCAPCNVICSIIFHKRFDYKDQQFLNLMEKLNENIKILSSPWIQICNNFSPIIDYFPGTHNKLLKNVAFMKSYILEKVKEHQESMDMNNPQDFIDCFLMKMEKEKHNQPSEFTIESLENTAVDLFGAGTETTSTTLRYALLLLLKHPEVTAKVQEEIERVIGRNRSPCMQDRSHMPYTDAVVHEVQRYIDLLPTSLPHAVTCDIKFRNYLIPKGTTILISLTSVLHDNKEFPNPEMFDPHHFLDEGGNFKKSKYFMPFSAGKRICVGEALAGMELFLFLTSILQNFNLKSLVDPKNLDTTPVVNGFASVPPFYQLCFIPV

Chain of Cannabinoid receptor 1 (P21554 whole entry): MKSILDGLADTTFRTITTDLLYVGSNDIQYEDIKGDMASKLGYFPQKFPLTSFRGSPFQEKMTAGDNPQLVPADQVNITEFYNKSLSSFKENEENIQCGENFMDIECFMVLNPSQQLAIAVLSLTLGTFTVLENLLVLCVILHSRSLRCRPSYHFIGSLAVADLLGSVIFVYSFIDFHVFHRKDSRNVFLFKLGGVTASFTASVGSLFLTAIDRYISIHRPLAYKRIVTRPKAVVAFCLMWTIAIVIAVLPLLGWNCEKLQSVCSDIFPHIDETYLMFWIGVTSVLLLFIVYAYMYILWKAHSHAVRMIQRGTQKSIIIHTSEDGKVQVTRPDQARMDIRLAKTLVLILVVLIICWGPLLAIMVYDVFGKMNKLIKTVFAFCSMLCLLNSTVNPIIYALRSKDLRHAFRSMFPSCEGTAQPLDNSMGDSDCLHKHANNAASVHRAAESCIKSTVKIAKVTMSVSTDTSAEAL
Chain of Acetylcholinesterase (P22303 whole entry): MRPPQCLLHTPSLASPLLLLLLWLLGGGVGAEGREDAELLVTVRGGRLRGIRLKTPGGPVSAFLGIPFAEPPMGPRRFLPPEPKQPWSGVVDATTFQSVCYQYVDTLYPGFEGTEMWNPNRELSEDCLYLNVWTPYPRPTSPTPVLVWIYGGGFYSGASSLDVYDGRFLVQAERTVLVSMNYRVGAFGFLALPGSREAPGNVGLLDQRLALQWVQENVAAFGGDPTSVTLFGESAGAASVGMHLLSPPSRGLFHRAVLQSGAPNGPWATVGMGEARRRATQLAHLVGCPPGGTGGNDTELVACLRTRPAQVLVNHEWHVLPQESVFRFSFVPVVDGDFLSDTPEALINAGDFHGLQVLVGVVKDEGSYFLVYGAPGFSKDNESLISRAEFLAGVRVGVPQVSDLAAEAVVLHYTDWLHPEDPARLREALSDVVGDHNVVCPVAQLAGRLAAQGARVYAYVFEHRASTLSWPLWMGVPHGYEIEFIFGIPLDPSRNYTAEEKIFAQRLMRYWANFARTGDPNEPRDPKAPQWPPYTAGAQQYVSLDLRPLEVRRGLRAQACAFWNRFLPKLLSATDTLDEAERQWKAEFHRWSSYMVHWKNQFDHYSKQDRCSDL
Chain of Mitogen-activated protein kinase 14 (Q16539 whole entry): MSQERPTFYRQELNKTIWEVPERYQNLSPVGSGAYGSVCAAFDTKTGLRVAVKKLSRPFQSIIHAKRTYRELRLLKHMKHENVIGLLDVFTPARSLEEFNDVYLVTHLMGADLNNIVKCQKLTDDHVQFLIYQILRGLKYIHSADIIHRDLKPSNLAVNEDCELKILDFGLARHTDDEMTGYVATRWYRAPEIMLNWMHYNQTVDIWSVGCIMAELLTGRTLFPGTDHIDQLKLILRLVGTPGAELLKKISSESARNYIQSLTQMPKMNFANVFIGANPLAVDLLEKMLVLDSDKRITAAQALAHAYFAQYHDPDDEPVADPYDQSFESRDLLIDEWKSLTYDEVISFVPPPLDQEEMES
Chain of Tyrosine-protein kinase Fyn (P06241 whole entry): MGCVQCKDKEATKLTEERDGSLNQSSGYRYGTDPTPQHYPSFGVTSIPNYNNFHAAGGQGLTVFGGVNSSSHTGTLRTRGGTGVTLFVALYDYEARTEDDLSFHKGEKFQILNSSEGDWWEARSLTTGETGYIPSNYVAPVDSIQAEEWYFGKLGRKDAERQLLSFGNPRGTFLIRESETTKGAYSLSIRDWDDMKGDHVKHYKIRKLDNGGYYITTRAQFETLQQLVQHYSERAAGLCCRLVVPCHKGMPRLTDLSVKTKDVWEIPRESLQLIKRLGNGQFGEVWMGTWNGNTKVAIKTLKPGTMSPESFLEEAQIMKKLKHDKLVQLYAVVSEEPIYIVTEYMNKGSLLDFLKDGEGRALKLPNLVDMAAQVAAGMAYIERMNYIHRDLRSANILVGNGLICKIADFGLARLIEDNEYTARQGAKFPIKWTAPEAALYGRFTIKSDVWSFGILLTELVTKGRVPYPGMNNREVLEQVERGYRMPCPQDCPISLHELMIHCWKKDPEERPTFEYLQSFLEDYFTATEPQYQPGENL

Regarding `O=c1cc(-c2ccccc2)oc2c1ccc1ccccc12` [ALPHA-NAPHTHOFLAVONE], the IC50 entry is “Not Active” in data set [1]; “Not Active” in data set [2]; 5.85 µM in data set [3] (read-out: IC50); “Not Active” in data set [4]; “Not Active” in data set [5]; “Not Active” in [6]. The IC50 entry in [7], in data set [8], in data set [9], in data set [10], in [11] and in data set [12] was “Not Active” each time. The IC50 entry in data set [13] is recorded as “Not Active”. For the same molecule, the Ki entry in data set [2] is “Not Active”; in data set [3] (read-out: Ki), 1.95 µM; in data set [6], “Not Active”; in data set [12], “Not Active”; in [13] it was “Not Active”.
With `NCC[C@H](O)C(=O)N[C@@H]1C[C@H](N)[C@@H](O[C@H]2O[C@H](CN)[C@@H](O)[C@H](O)[C@H]2O)[C@H](O)[C@H]1O[C@H]1O[C@H](CO)[C@@H](O)[C@H](N)[C@H]1O` [AMIKACIN], the IC50 result in data set [1], in [2], in data set [3] (cho), in data set [4], in [5] and in [6] was “Not Active” in each case. The IC50 result in [7], in data set [8], in [9], in data set [10], in data set [11] and in data set [12] was “Not Active” in each case. Besides, the IC50 result in [13] is given as “Not Active”. Moreover, the Ki entry in [2], in [6], in [12] and in data set [13] was “Not Active” throughout.
With `CC1(C)S[C@@H]2[C@H](NC(=O)[C@H](N)c3ccc(O)cc3)C(=O)N2[C@H]1C(=O)O` [AMOXICILLIN], the IC50 result in data set [1], in data set [2], in data set [3] (cho), in data set [4], in data set [5] and in data set [6] was “Not Active” throughout. Also, the IC50 entry in data set [7], in data set [8], in data set [9], in data set [10], in data set [11] and in data set [12] was “Not Active” each time. In data set [13], the IC50 result is “Not Active”. For the same molecule, the Ki result in [2], in data set [6], in data set [12] and in data set [13] was “Not Active” throughout.
In the case of `CCOC(=O)OC(C)OC1=C(C(=O)Nc2ccccn2)N(C)S(=O)(=O)c2ccccc21` (stereo not drawn) [AMPIROXICAM], the IC50 entry in data set [1], in data set [2], in data set [3] (cho), in data set [4], in data set [5] and in [6] was “Not Active” throughout. The IC50 entry in data set [7], in [8], in [9], in [10], in [11] and in [12] was “Not Active” throughout. Moreover, in data set [13], the IC50 result is “Not Active”. Moreover, the Ki entry in data set [2], in [6], in data set [12] and in data set [13] was “Not Active” each time.
Regarding `N#C[C@H](O[C@@H]1O[C@H](CO[C@@H]2O[C@H](CO)[C@@H](O)[C@H](O)[C@H]2O)[C@@H](O)[C@H](O)[C@H]1O)c1ccccc1` [AMYGDALIN], the IC50 entry in data set [1], in data set [2], in [3] (cho), in data set [4], in [5] and in [6] was “Not Active” each time. The IC50 entry in data set [7], in data set [8], in data set [9], in data set [10], in [11] and in data set [12] was “Not Active” throughout. Further, in [13], the IC50 result was “Not Active”. For the same molecule, the Ki result in data set [2], in data set [6], in [12] and in [13] was “Not Active” in each case.
Turning to `N=C(N)NCCCCNC(=N)N.O=S(=O)(O)O` [ARCAINE SULFATE], the IC50 entry in data set [1], in data set [2], in data set [3] (cho), in data set [4], in data set [5] and in data set [6] was “Not Active” throughout. The IC50 entry in data set [7], in data set [8], in [9], in data set [10], in data set [11] and in data set [12] was “Not Active” throughout. Further, the IC50 result in data set [13] is recorded as “Not Active”. Further, the Ki result in data set [2], in data set [6], in data set [12] and in data set [13] was “Not Active” throughout.

The values above are taken from ChEMBL document CHEMBL1909046, “DrugMatrix in vitro pharmacology data”.
